Measurements published in ChEMBL document CHEMBL3102693 (ACS Med Chem Lett, 2013).
In brackets after ≈: the same amount, converted by molar mass.

Experiments:
[1] = system: Mycobacterium tuberculosis; test: Antimicrobial activity against Mycobacterium tuberculosis H37Rv after 10 to 14 days by broth microdilution assay; format: functional
[2] = biological target: T1, BirA bifunctional protein (Mycobacterium tuberculosis (strain CDC 1551 / Oshkosh), UniProt P96884); test: Inhibition of biotin binding to Mycobacterium tuberculosis BirA by isothermal titration calorimetry
T1 sequence (P96884 whole entry): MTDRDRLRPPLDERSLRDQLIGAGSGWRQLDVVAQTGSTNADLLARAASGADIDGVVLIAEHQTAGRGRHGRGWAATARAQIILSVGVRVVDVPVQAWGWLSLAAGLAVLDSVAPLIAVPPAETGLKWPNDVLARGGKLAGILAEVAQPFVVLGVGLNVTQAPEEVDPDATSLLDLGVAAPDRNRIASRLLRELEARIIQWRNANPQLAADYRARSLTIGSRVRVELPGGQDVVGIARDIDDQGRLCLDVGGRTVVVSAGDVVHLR

SMILES | MIC90 [1] [µM] | Kd [2] [nM]
Nc1ncnc2c1ncn2[C@@H]1O[C@H](CNS(=O)(=O)NC(=O)CCCC[C@@H]2SC[C@@H]3NC(=O)N[C@@H]32)[C@@H](O)[C@H]1O | 0.78 (≈ 0.446 µg/mL) | 
Nc1ncnc2c1ncn2[C@@H]1O[C@H](CCS(=O)(=O)NC(=O)CCCC[C@@H]2SC[C@@H]3NC(=O)N[C@@H]32)[C@@H](O)[C@H]1O | 3.12 (≈ 1.78 µg/mL) | 0.1
Nc1nccc2c1ncn2[C@@H]1O[C@H](COS(=O)(=O)NC(=O)CCCC[C@@H]2SC[C@@H]3NC(=O)N[C@@H]32)[C@@H](O)[C@H]1O | 1.56 (≈ 0.892 µg/mL) | 0.04
Nc1nc2ccccc2c2c1ncn2[C@@H]1O[C@H](COS(=O)(=O)NC(=O)CCCC[C@@H]2SC[C@@H]3NC(=O)N[C@@H]32)[C@@H](O)[C@H]1O | > 100 | 0.23
CC(C)(C)C#Cc1nc(N)c2ncn([C@@H]3O[C@H](COS(=O)(=O)NC(=O)CCCC[C@@H]4SC[C@@H]5NC(=O)N[C@@H]54)[C@@H](O)[C@H]3O)c2n1 | > 100 | 11
